Test results taken from patent US9474790B2, “Stable, protracted GLP-1/glucagon receptor co-agonists for medical use” (Novo Nordisk A/S, priority 2013, dated 2016).
Numbered stars: 1 amine (or outer) side, 2 acyl side, 3 side chain; on linkers, the order of the positions; unused ones are H or OH. Square brackets hold non-standard residues; d marks the D form. Side chains are listed from the residue outwards. Peptide text beside a SMILES is read from it. * marks the point of attachment. C18 diacid = O=C(O)CCCCCCCCCCCCCCCCC(=O)*; γGlu = O=C(O)[C@H](CCC(=O)[*:2])N[*:1]; Aib = CC(C)(N)C(=O)O

Tests used:
[1] = Chemical stability assessment by RP-UPLC; type: physicochemical; details: 333 μM, 8 mM phosphate buffer pH 7.3, 37° C. vs 5° C.
Method in brief: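 Purity loss = (purity after 14 days at 5° C. minus that at 37° C.) relative to the 5° C. value, purity being main-peak area % by RP-UPLC with UV at 215 nm. Samples were 333 μM in 8 mM phosphate, pH 7.3; gradient adjusted for outlying retention times.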

human GLP-1 receptor = target: T1, human GLP-1 receptor (Homo sapiens, UniProt P43220); experiment: GLP-1 receptor binding, 125I-GLP-1 displacement SPA on isolated membranes; details: displacement of 125I-GLP-1 from membranes; read-out: IC50 GLP-1R
T1 construct: expressed in transfected cells; host or cells: BHK cells (parent BHKTS13), clone FCW467-12A/KZ10-1, with CRE luciferase
T1 sequence (P43220 24-463): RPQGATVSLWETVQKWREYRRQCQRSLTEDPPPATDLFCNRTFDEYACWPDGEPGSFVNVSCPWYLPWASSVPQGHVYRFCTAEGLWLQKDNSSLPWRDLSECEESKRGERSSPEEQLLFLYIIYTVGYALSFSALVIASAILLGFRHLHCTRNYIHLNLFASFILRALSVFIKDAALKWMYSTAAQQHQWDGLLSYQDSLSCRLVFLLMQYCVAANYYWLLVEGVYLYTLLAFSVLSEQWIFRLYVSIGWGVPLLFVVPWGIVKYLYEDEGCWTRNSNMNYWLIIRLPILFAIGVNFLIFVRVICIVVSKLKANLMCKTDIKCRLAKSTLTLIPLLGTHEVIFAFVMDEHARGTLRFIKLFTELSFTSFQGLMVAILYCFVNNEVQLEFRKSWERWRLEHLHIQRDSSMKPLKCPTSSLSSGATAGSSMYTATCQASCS
Method in brief: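 Test derivatives, serially diluted, competed with 125I-GLP-1(7-36)NH2 for the human GLP-1 receptor on BHK membranes, read by WGA-bead scintillation proximity after 2 h at 30°C, pH 7.4 HEPES/EGTA/MgCl2 buffer. Final serum albumin was either ≤0.001% or 2.0%; IC50 from non-linear fit.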

Purity loss; 14 days at 37° C. [1] | IC50 (human GLP-1 receptor) | SMILES
1% | 0.2 nM | CC(C)C[C@H](NC(=O)[C@H](Cc1ccc(O)cc1)NC(=O)[C@H](CCCCN)NC(=O)[C@H](CO)NC(=O)[C@H](CC(C)C)NC(=O)[C@H](CC(=O)O)NC(=O)[C@H](CO)NC(=O)[C@@H](NC(=O)[C@H](Cc1ccccc1)NC(=O)[C@@H](NC(=O)CNC(=O)[C@H](CCC(N)=O)NC(=O)C(C)(C)NC(=O)[C@@H](N)Cc1c[nH]cn1)[C@@H](C)O)[C@@H](C)O)C(=O)N[C@@H](CCC(=O)O)C(=O)N[C@@H](CO)C(=O)N[C@@H](CCCCN)C(=O)N[C@@H](CCCNC(=N)N)C(=O)N[C@@H](C)C(=O)N[C@@H](CCCNC(=N)N)C(=O)N[C@@H](CCC(=O)O)C(=O)N[C@@H](Cc1ccccc1)C(=O)N[C@H](C(=O)N[C@@H](CCC(N)=O)C(=O)N[C@@H](Cc1c[nH]c2ccccc12)C(=O)N[C@@H](CC(C)C)C(=O)N[C@@H](CC(C)C)C(=O)N[C@@H](CCCCNC(=O)CC[C@H](NC(=O)CC[C@H](NC(=O)[C@H](CO)NC(=O)[C@H](CCC(=O)O)NC(=O)[C@H](CO)NC(=O)CC[C@H](NC(=O)CC[C@H](NC(=O)CCCCCCCCCCCCCCCCC(=O)O)C(=O)O)C(=O)O)C(=O)O)C(=O)O)C(=O)N[C@H](C(N)=O)[C@@H](C)O)C(C)C [Example 54, N^ε28-[(4S)-4-carboxy-4-[[(4S)-4-carboxy-4-[[(2S)-2-[[(2S)-4-carboxy-2-[[(2S)-2-[[(4S)-4-carboxy-4-[[(4S)-4-carboxy-4-(17-carboxyheptadecanoylamino)butanoyl]amino]butanoyl]amino]-3-hydroxypropanoyl]amino]butanoyl]amino]-3-hydroxypropanoyl]amino]butanoyl]amino]butanoyl]-[Aib2,Leu10,Glu15,Lys17,Arg20,Glu21,Leu27,Lys28]-Glucagon amide] (H-H[Aib]QGTFTSDLSKYLESKRAREFVQWLLK([γGlu-γGlu-Ser-Glu-Ser-γGlu-γGlu-C18 diacid])T-NH2; N-terminus assumed)
2% | 1.1 nM | CC(C)C[C@H](NC(=O)[C@H](CC(=O)O)NC(=O)[C@H](CC(C)C)NC(=O)[C@H](Cc1ccc(O)cc1)NC(=O)[C@H](CCCCN)NC(=O)[C@H](CO)NC(=O)[C@H](CC(C)C)NC(=O)[C@H](CC(=O)O)NC(=O)[C@H](CO)NC(=O)[C@@H](NC(=O)[C@H](Cc1ccccc1)NC(=O)[C@@H](NC(=O)CNC(=O)[C@H](CCC(N)=O)NC(=O)C(C)(C)NC(=O)[C@@H](N)Cc1c[nH]cn1)[C@@H](C)O)[C@@H](C)O)C(=O)N[C@@H](CCCNC(=N)N)C(=O)N[C@@H](CCCNC(=N)N)C(=O)N[C@@H](C)C(=O)N[C@@H](CCCNC(=N)N)C(=O)N[C@@H](CC(=O)O)C(=O)N[C@@H](Cc1ccccc1)C(=O)N[C@H](C(=O)N[C@@H](CCC(N)=O)C(=O)N[C@@H](Cc1c[nH]c2ccccc12)C(=O)N[C@@H](CC(C)C)C(=O)N[C@@H](CC(C)C)C(=O)N[C@@H](CCCCNC(=O)CNC(=O)[C@H](CO)NC(=O)[C@H](CCC(=O)O)NC(=O)[C@H](CO)NC(=O)CC[C@H](NC(=O)CC[C@H](NC(=O)CCCCCCCCCCCCCCCCC(=O)O)C(=O)O)C(=O)O)C(=O)N[C@H](C(N)=O)[C@@H](C)O)C(C)C [Example 55, N^ε28-[2-[[(2S)-2-[[(2S)-4-carboxy-2-[[(2S)-2-[[(4S)-4-carboxy-4-[[(4S)-4-carboxy-4-(17-carboxyheptadecanoylamino)butanoyl]amino]butanoyl]amino]-3-hydroxypropanoyl]amino]butanoyl]amino]-3-hydroxypropanoyl]amino]acetyl]-[Aib2,Leu10,Leu16,Arg20,Leu27,Lys28]-Glucagon amide] (H-H[Aib]QGTFTSDLSKYLDLRRARDFVQWLLK([Gly-Ser-Glu-Ser-γGlu-γGlu-C18 diacid])T-NH2; N-terminus assumed)
